The values below come from PMC3856094, “Identification of Novel Small Molecules as Inhibitors of Hepatitis C Virus by Structure-Based Virtual Screening” (International Journal of Molecular Sciences, 2013).

For orientation: CC50 means the concentration at which the toxic effect on the cells reaches its halfway point. Lower therefore signals harm at low concentration. For orientation: LogP means a log measure of how a compound divides between an organic and an aqueous phase. Usually inhibition stands for the change of the read-out against control, counted positive when it falls. Read a high inhibition as a response far below the control. The term IC50 denotes the point on the concentration scale where inhibition reaches its midpoint.

Values joined by “and” are separate entries in the source; they are usually repeats but may differ in a detail not shown here. Equal values may be shown once.

Details of series [1]: method as in SPECS. The settings on record: values provided by vendor; ref SPECS; cited from earlier work.
Series [2] in a line: cell cytotoxicity assay (MTT). It counts as cell-based. The settings on record: human, 50% cytotoxicity concentration, Huh7 (NS3-5B) cells. On the procedure: To determine if the compounds were cytotoxic to Huh7 (NS3-5B) cells, the cells (1 × 10^4 cells per well) were plated on 96-well microtiter plates and were incubated at 37 °C in 5% CO2 overnight. Various concentrations of the compounds were added to the wells. 48 h later, 10 μL of MTT (M2128, Sigma, Shanghai, China) were added to each well and incubated at 37 °C for 4 h. One-hundred microliters of MTT buffer (10% SDS + 5% isobutyl alcohol + 10 mmol/L HCl) were added overnight, and the optical density readings were measured by colorimeter at 580 and 680 nm.

Details of series [3]: method as in SPECS. Conditions: values provided by vendor; ref SPECS; cited from earlier work. This is another data set of the same source.
A further series addresses T1, HCV NS3/4A protease (Hepatitis C virus genotype 1b, UniProt O92972).
T1 construct: HCV NS3/4A protease diluent (10 ng, 10 μL); purchased AnaSpec 71126 (assay kit)
Briefly: HCV NS3/4A protease assay (SensoLyte 490 kit). The settings on record: inhibition percentage at 50 μM in biochemical protease assay, mean of duplicate wells. On the procedure: A SensoLyte® 490 HCV Protease Assay Kit (AnaSpec, Cat#71126) was used for screening HCV protease inhibitors. The test compounds (100 nL of 200× final concentration, prepared by the ECHO liquid handler (ECHO, Labcyte, CA, USA)) and HCV NS3/4A protease diluent (10 ng, 10 μL) were added into a 384-well black microplate (Corning #3573). The known HCV NS3/4A protease inhibitor (Ac-DEDif-EchaC, AnaSpec Cat#25346) was used as a control. The plate was incubated at room temperature for enzymatic reaction for 10 min. In the meantime, the HCV NS3/4A protease substrate solution was also incubated at the same temperature. The reaction was initiated by adding 10 μL of HCV NS3/4A protease substrate. The reagents were completely mixed by shaking the plate gently for 30–60 s. For the kinetic reading, the fluorescence intensity at Ex/Em = 340 nm/490 nm was immediately measured, and the data was recorded every 2 min for 30 min.

Series [4] has as its system HCV replicon, Huh7 (NS3-5B) cells. Description: cell-based HCV replicon assay (luciferase). Details: species or system Hepatitis C virus genotype 1b. Conditions: for IC50: genotype 1b, Huh7 (NS3-5B) cells, 48 h incubation, luciferase readout; for SI (selectivity index): ratio of CC50/IC50. The protocol:
Huh7 (NS3-5B) cells correspond to a stable cell line transfected with HCV NS3-5B genotype 1b. The cells were seeded (1 × 10^4 cells per well) in Dulbecco’s Modified Eagle Medium (DMEM) supplemented with 10% fetal bovine serum, 2 mM glutamine, penicillin (100 IU/mL)/streptomycin (100 μg/mL), 1× nonessential amino acids and 0.5 mg/mL G418 in 96-well plates overnight. Compounds were diluted and added to each well. Each concentration was measured in duplicate. After 48 h of incubation, 100 μL of Steady-Glo Luciferase buffer (E2550, Promega, Beijing, China) was added to each well and shaken for 10 min, and the results were read on plate reader (ENVISION, PerkinElmer, Shanghai, China). The IC50 values were calculated by fitting with the parameter of the Hill equation.

T1 sequence (O92972 1658-1711): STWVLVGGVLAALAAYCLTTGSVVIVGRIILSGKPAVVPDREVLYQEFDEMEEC
T1 sequence (O92972 1027-1657): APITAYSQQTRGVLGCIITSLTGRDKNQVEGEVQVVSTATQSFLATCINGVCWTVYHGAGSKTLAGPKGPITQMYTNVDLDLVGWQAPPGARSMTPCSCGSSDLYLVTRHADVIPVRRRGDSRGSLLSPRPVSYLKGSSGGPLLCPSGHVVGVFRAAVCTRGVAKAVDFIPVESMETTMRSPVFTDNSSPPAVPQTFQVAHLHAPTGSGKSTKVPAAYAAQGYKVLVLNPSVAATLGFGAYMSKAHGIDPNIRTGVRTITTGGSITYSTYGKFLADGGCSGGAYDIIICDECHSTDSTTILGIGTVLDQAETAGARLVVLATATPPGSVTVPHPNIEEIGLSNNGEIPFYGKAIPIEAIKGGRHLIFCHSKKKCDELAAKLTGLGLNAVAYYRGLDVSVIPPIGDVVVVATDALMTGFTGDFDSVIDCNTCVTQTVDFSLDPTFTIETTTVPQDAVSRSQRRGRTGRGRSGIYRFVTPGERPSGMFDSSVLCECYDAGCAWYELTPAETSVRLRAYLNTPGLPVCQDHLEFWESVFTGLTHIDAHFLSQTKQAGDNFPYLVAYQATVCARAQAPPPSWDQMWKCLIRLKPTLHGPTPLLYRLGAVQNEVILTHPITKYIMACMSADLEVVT

Turning to `O=C(N/N=C/c1ccc(O)cc1O)c1[nH]nc2c1CCCC2` [Compound 1], the LogS in series [1] is −3.01. This compound had a CC50 at 48 h in series [2] of 0.46 µM. Besides, in series [3], the log partition coefficient (LogP) is given as 0.27. For the same compound, on HCV NS3/4A protease, the inhibition at 50 µM was 96.7%. In series [4] (Hepatitis C virus, Huh-7, 48 h), this compound came in with a half-inhibitory concentration (IC50) of 4.69 µM. Besides, the “SI (selectivity index)” value in series [4] turned out to be 0.10.

Take `O=C(NC(C(=O)N/N=C/c1ccc(O)cc1O)c1n[nH]c(=O)c2ccccc12)c1ccccc1` (stereo not shown) [Compound 2]: the LogS in series [1] is −3.90. In addition, the half-maximal cytotoxic concentration (CC50) at 48 h in series [2] is > 50 µM. Also, in series [3], the LogP is 1.95. The compound further displayed an inhibition at 50 µM at HCV NS3/4A protease of 77.9%. For the same compound, the midpoint of inhibition in series [4] (Hepatitis C virus, Huh-7, 48 h), the IC50, lay at 11.2 µM. The “SI (selectivity index)” value in series [4] is given as >4.46.

On to `Cc1ccc(O)c(/C=N/NC(=O)C2C(=O)NCC2c2ccccc2)c1` (stereo not shown) [Compound 3], for which the LogS in series [1] is recorded as −3.69. Also, the 50% cytotoxic concentration (CC50) at 48 h in series [2] is > 50 µM. In addition, the lipophilicity (LogP) in series [3] is reported as 2.75. Besides, inhibition in series [4] (Hepatitis C virus, Huh-7, 48 h) was half-maximal at 13.4 µM (IC50). The “SI (selectivity index)” value in series [4] was >3.73.

For the compound `COc1ccc(/C=N/NC(=O)c2ccc(O)cc2O)cc1O` [Compound 4], the LogS in series [1] was −2.48. Besides, the CC50 at 48 h in series [2] is > 50 µM. Besides, the log partition coefficient (LogP) in series [3] is on record as 2.2. Moreover, the inhibition at 50 µM against HCV NS3/4A protease was found to be 56.9%. In series [4] (Hepatitis C virus, Huh-7, 48 h), this compound showed a half-inhibitory concentration (IC50) of 15.3 µM. For the same compound, in series [4], the “SI (selectivity index)” value is >3.27.

For the compound `COc1cccc(/C=N/NC(=O)c2cc3ccccc3nc2C)c1O` [Compound 5], the LogS in series [1] is −4.05. The CC50 at 48 h in series [2] was > 50 µM. Besides, in series [3], the LogP is on record as 3.17. Further, the IC50 was 3 µM in series [4] (Hepatitis C virus, Huh-7, 48 h) and 3.01 µM in series [4].

Compound `O=C(CSc1nnc(CNc2ccccc2)n1-c1ccc(Cl)cc1Cl)N/N=C/c1c2ccccc2cc2ccccc12` [Compound 6] displayed a 50% cytotoxic concentration (CC50) at 48 h in series [2] of 14.8 µM. In addition, the lipophilicity (LogP) in series [3] is on record as 7.08. This compound also came in with an inhibition at 50 µM on HCV NS3/4A protease of 48.1%. The IC50 in series [4] (Hepatitis C virus, Huh-7, 48 h) was determined as 5.04 µM. Moreover, the “SI (selectivity index)” value in series [4] turned out to be 2.94.

For the compound `CCC(C)c1ccc(-c2cc(C(=O)N/N=C/c3cccnc3)c3ccccc3n2)cc1` (stereo not shown) [Compound 7], in series [1], the LogS is recorded as −5.53. Further, half-maximal cytotoxicity in series [2] (CC50 at 48 h) was put at 11.8 µM. Moreover, the log partition coefficient (LogP) in series [3] was 5.84. Further, the inhibition at 50 µM against HCV NS3/4A protease turned out to be 64.3%. This compound came in with an IC50 in series [4] (Hepatitis C virus, Huh-7, 48 h) of 4.14 µM. In addition, the “SI (selectivity index)” value in series [4] was found to be 2.85.

As for `NC(=S)N/N=C/c1cccc(O)c1O` [Compound 8], the LogS in series [1] is −1.89. Moreover, it took 1.12 µM to reach half-maximal cytotoxicity in series [2] (CC50 at 48 h). Moreover, the LogP in series [3] is 1.51. This compound also showed an IC50 in series [4] (Hepatitis C virus, Huh-7, 48 h) of 6.23 µM. The “SI (selectivity index)” value in series [4] is listed as 0.18.

Take `NC(=S)N/N=C/c1ccc(O)c(O)c1` [Compound 9]: the LogS in series [1] was −1.03. In addition, in series [3], the LogP is listed as 1.53. This compound came in with an inhibition at 50 µM against HCV NS3/4A protease of 33.7%.

For the compound `O=C1c2ccccc2C(=O)N1/N=C/c1cccc(O)c1O` [Compound 10], the LogS in series [1] is recorded as −2.5. In series [2], the 50% cytotoxic concentration (CC50) at 48 h was > 50 µM. Moreover, the log partition coefficient (LogP) in series [3] was 2.18. The compound further had an IC50 in series [4] (Hepatitis C virus, Huh-7, 48 h) of 7.07 µM. In addition, the “SI (selectivity index)” value in series [4] is given as >7.07.

As for `C=CCc1cccc(/C=N/c2ccc(OC)cc2)c1O` [Compound 11], the LogS in series [1] is recorded as −4.16. Also, the 50% cytotoxic concentration (CC50) at 48 h in series [2] was > 50 µM. The log partition coefficient (LogP) in series [3] is on record as 4.43. The half-inhibitory concentration (IC50) was < 10 µM in series [4] (Hepatitis C virus, Huh-7, 48 h); 5.1 µM and 5.14 µM in series [4].

As for `Oc1ccc2cc(Br)ccc2c1/C=N/c1nc[nH]n1` [Compound 12], the LogS in series [1] is on record as −2.67. The CC50 at 48 h in series [2] is > 50 µM. Further, the log partition coefficient (LogP) in series [3] was 3.23. This compound also had an inhibition at 50 µM against HCV NS3/4A protease of 53%. In series [4] (Hepatitis C virus, Huh-7, 48 h), this compound yielded an IC50 of 16.1 µM. Also, the “SI (selectivity index)” value in series [4] is >3.11.

Consider `COc1ccc(-c2cc(C(=O)Nc3ccc(S(=O)(=O)Nc4nccs4)cc3)c3ccccc3n2)c(OC)c1` [Compound 14], for which the LogS in series [1] was −7.55. The 50% cytotoxic concentration (CC50) at 48 h in series [2] is > 50 µM. Also, the LogP in series [3] is on record as 5.1. Moreover, it took 20.7 µM to reach half-maximal inhibition in series [4] (Hepatitis C virus, Huh-7, 48 h) (IC50). Further, the “SI (selectivity index)” value in series [4] is listed as >2.42.

As for `CCCCC(CC)C(=O)Nc1nnc(Cc2ccc(OC)cc2)s1` (stereo not shown) [Compound 15], the LogS in series [1] is −5.64. Further, the CC50 at 48 h in series [2] is > 50 µM. Besides, the lipophilicity (LogP) in series [3] is given as 4.57. Also, at HCV NS3/4A protease, 50 µM produced 41.8% inhibition. Half-maximal inhibition in series [4] (Hepatitis C virus, Huh-7, 48 h) (IC50) required 28.2 µM. For the same compound, in series [4], the “SI (selectivity index)” value is recorded as >1.77.

As for `O=C(COC(=O)c1cccc(N2C(=O)C3C4c5ccccc5C(c5ccccc54)C3C2=O)c1)c1ccc(Br)cc1` (stereo not shown) [Compound 16], the LogS in series [1] is listed as −8.04. Further, the 50% cytotoxic concentration (CC50) at 48 h in series [2] is > 50 µM. The LogP in series [3] is 4.48. In series [4] (Hepatitis C virus, Huh-7, 48 h), this compound yielded an IC50 of 9.42 µM. Besides, the “SI (selectivity index)” value in series [4] is given as >5.31.
